Literature values as cited in patent publication US20050282773A1, “Modified polysaccharides in combination with anti-cancer drugs for enhanced treatment of cancer” (Pro-Pharmaceuticals, Inc., priority 2004, published 2005).

What was measured:
[1] = test system: L-1 sarcoma cells; conditions: in vivo
[2] = test system: B16 melanoma cells; conditions: in vivo

Compound | liver metastasis of L-1 sarcoma cells [1] | metastasis of B16 melanoma cells [2]
O=C[C@H](O)[C@@H](O)[C@@H](O)[C@H](O)CO [D-galactose] | inhibited | –
CC(=O)N[C@H]1[C@H](O[C@H]2[C@@H](O)[C@@H](CO)O[C@@H](O[C@H]3[C@H](O)[C@@H](O)C(O)O[C@@H]3CO)[C@@H]2O)O[C@H](CO)[C@@H](O)[C@@H]1O[C@@H]1O[C@H](CO)[C@H](O)[C@H](O)[C@H]1O (stereo partly shown) [lacto-N-tetrose] | – | inhibit
CO[C@H]1O[C@H](CO)[C@@H](O[C@@H]2O[C@H](CO)[C@H](O)[C@H](O)[C@H]2O)[C@H](O)[C@H]1O [methyl-α-D-lactoside] | – | inhibit
arabinogalactose | inhibited | –
